Measured values published in the supplement of paper PMC10307832.

Assays:
Assay in all cases: relative viability (nuclei count vs DMSO), 5 days (fraction); higher = more cells survive
VE-821 + AZD7762 = compound: CS(=O)(=O)c1ccc(-c2cnc(N)c(C(=O)Nc3ccccc3)n2)cc1 [VE-821] + NC(=O)Nc1cc(-c2cccc(F)c2)sc1C(=O)N[C@H]1CCCNC1 [AZD7762] (partner 0.2 µM)
In short: (§1)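 Dosing by pin tool came one day after lung cancer cell lines were seeded in 1536-well plates, using either one drug or a fixed anchor-drug dose plus five library-drug doses (not always all listed) in √10 steps. After 5 days, nuclei were counted on 4× images. Relative viability is treated-well nuclei count divided by vehicle-well nuclei count, and values are medians of duplicate plates.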

VE-821 + Pemetrexed = compound: CS(=O)(=O)c1ccc(-c2cnc(N)c(C(=O)Nc3ccccc3)n2)cc1 [VE-821] + Nc1nc2[nH]cc(CCc3ccc(C(=O)N[C@@H](CCC(=O)O)C(=O)O)cc3)c2c(=O)[nH]1 [Pemetrexed] (partner 0.2 µM)
In short: as §1

VE-821 + Decitabine = compound: CS(=O)(=O)c1ccc(-c2cnc(N)c(C(=O)Nc3ccccc3)n2)cc1 [VE-821] + Nc1ncn([C@H]2C[C@H](O)[C@@H](CO)O2)c(=O)n1 [Decitabine] (partner 2 µM)
In short: as §1

Ruxolitinib + Trametinib = compound: N#CC[C@H](C1CCCC1)n1cc(-c2ncnc3[nH]ccc23)cn1 [Ruxolitinib] + CC(=O)Nc1cccc(-n2c(=O)n(C3CC3)c(=O)c3c(Nc4ccc(I)cc4F)n(C)c(=O)c(C)c32)c1 [Trametinib] (partner 0.02 µM)
In short: as §1

Cell Line | relative viability (VE-821 + AZD7762; first compound 0.08 µM) | relative viability (VE-821 + AZD7762; first compound 0.253 µM) | relative viability (VE-821 + AZD7762; first compound 0.8 µM) | relative viability (VE-821 + AZD7762; first compound 2.53 µM) | relative viability (VE-821 + AZD7762; first compound 8 µM) | relative viability (VE-821 + Pemetrexed; first compound 0.08 µM) | relative viability (VE-821 + Pemetrexed; first compound 0.253 µM) | relative viability (VE-821 + Pemetrexed; first compound 0.8 µM) | relative viability (VE-821 + Pemetrexed; first compound 2.53 µM) | relative viability (VE-821 + Pemetrexed; first compound 8 µM) | relative viability (VE-821 + Decitabine; first compound 0.08 µM) | relative viability (VE-821 + Decitabine; first compound 0.253 µM) | relative viability (VE-821 + Decitabine; first compound 0.8 µM) | relative viability (VE-821 + Decitabine; first compound 2.53 µM) | relative viability (VE-821 + Decitabine; first compound 8 µM) | relative viability (Ruxolitinib + Trametinib; first compound 0.08 µM) | relative viability (Ruxolitinib + Trametinib; first compound 0.253 µM) | relative viability (Ruxolitinib + Trametinib; first compound 0.8 µM) | relative viability (Ruxolitinib + Trametinib; first compound 2.53 µM) | relative viability (Ruxolitinib + Trametinib; first compound 8 µM)
LXF-289 | 0.931 | 1.08 | 1.12 | 0.971 | 0.686 | 0.902 | 0.928 | 0.936 | 1.01 | 0.847 | 0.426 | 0.413 | 0.467 | 0.437 | 0.556 | 0.598 | 0.677 | 0.706 | 0.514 | 0.668
NCI-H520 | – | – | – | – | – | 0.75 | 0.657 | 0.582 | 0.361 | 0.223 | 0.516 | 0.526 | 0.583 | 0.545 | 0.379 | 0.87 | 0.663 | 0.823 | 0.609 | 0.574
NCI-H661 | – | – | – | – | – | 0.979 | 0.923 | 0.84 | 0.744 | 0.571 | 0.61 | 0.568 | 0.648 | 0.628 | 0.602 | 0.661 | 0.619 | 0.685 | 0.432 | 0.52
NCI-H727 | 0.512 | 0.495 | 0.411 | 0.382 | 0.41 | – | – | – | – | – | 0.865 | 0.799 | 0.952 | 0.916 | 0.751 | 0.406 | 0.407 | 0.413 | 0.416 | 0.453
NCI-H1563 | – | – | – | – | – | 0.778 | 0.7 | 0.613 | 0.761 | 0.481 | – | – | – | – | – | – | – | – | – | –
NCI-H1650 | – | – | – | – | – | 0.344 | 0.355 | 0.289 | 0.386 | 0.307 | 0.448 | 0.369 | 0.322 | 0.437 | 0.389 | 0.331 | 0.597 | 0.628 | 0.27 | 0.541
NCI-H1703 | 0.0991 | 0.11 | 0.14 | 0.119 | 0.1 | – | – | – | – | – | – | – | – | – | – | – | – | – | – | –
NCI-H2009 | – | – | – | – | – | 1.03 | 1 | 1.02 | 0.851 | 0.732 | 0.381 | 0.413 | 0.425 | 0.413 | 0.398 | 0.304 | 0.249 | 0.329 | 0.168 | 0.196
NCI-H2023 | – | – | – | – | – | 0.24 | 0.202 | 0.17 | 0.123 | 0.0894 | 0.249 | 0.259 | 0.205 | 0.194 | 0.13 | 0.57 | 0.524 | 0.654 | 0.4 | 0.565
NCI-H2228 | – | – | – | – | – | 0.333 | 0.373 | 0.301 | 0.253 | 0.156 | – | – | – | – | – | 0.229 | 0.861 | 0.62 | 0.24 | 0.144
SK-LU-1 | – | – | – | – | – | 0.971 | 0.943 | 0.917 | 0.672 | 0.4 | 0.684 | 0.671 | 0.522 | 0.612 | 0.475 | 0.5 | 0.578 | 0.548 | 0.3 | 0.408
SK-MES-1 | – | – | – | – | – | 0.98 | 0.934 | 0.838 | 0.612 | 0.352 | 0.373 | 0.406 | 0.38 | 0.361 | 0.284 | 0.561 | 0.596 | 0.587 | 0.315 | 0.516
SW 1573 | – | – | – | – | – | 0.774 | 0.816 | 0.748 | 0.784 | 0.576 | 0.538 | 0.458 | 0.433 | 0.511 | 0.416 | 0.533 | 0.545 | 0.616 | 0.486 | 0.574
